Data as given in ChEMBL document CHEMBL1155218, “Carbonic anhydrase inhibitors. Comparison of aliphatic sulfamate/bis-sulfamate adducts with isozymes II and IX as a platform for designing tight-binding, more isoform-selective inhibitors” (J Med Chem, 2009).

Tests used:
Carbonic anhydrase 13 = Carbonic anhydrase 13 (Mus musculus, UniProt Q9D6N1)
[1] = molecular target: Carbonic anhydrase 5A, mitochondrial (Homo sapiens, UniProt P35218)
Carbonic anhydrase 12 = Carbonic anhydrase 12 (Homo sapiens, UniProt O43570)
Chain of Carbonic anhydrase 12 (O43570 whole entry): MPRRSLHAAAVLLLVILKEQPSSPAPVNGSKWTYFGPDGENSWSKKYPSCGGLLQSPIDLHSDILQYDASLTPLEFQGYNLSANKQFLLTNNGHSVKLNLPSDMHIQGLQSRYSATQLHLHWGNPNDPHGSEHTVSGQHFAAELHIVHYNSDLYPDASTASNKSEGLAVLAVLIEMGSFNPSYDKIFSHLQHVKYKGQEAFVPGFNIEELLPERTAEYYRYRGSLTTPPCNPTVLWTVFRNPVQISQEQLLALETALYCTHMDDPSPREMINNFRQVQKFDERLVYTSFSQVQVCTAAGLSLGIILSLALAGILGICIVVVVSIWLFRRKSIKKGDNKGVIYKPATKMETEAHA

Carbonic anhydrase 14 = Carbonic anhydrase 14 (Homo sapiens, UniProt Q9ULX7)
Chain of Carbonic anhydrase 14 (Q9ULX7 whole entry): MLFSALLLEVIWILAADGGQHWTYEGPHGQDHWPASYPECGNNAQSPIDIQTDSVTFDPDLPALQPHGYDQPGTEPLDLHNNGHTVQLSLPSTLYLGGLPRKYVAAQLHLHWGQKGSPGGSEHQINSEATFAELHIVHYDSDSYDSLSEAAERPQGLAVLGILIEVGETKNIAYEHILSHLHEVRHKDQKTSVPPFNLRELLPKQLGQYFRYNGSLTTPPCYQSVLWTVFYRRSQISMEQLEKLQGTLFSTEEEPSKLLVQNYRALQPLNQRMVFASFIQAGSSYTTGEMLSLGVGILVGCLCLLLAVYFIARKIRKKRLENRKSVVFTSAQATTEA

Carbonic anhydrase 3 = Carbonic anhydrase 3 (Homo sapiens, UniProt P07451)
Chain of Carbonic anhydrase 3 (P07451 whole entry): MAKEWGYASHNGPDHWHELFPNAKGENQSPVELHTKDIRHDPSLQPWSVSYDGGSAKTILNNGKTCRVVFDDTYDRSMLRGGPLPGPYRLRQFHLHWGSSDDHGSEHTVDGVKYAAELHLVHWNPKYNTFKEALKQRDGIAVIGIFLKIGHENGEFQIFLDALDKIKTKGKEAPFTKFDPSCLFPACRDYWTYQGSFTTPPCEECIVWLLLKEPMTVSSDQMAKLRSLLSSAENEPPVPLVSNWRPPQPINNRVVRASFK

Carbonic anhydrase 6 = Carbonic anhydrase 6 (Homo sapiens, UniProt P23280)
Chain of Carbonic anhydrase 6 (P23280 whole entry): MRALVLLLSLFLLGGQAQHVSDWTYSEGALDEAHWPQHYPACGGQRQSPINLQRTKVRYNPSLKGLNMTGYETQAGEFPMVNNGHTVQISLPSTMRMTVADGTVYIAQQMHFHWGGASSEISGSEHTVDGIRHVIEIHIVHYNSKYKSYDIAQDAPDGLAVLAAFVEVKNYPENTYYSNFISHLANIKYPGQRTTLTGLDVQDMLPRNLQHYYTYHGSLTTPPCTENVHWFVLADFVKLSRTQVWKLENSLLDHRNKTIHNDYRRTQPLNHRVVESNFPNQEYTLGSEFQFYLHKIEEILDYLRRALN

[2] = molecular target: Carbonic anhydrase 5B, mitochondrial (Homo sapiens, UniProt Q9Y2D0)
Chain of Carbonic anhydrase 5B, mitochondrial (Q9Y2D0 whole entry): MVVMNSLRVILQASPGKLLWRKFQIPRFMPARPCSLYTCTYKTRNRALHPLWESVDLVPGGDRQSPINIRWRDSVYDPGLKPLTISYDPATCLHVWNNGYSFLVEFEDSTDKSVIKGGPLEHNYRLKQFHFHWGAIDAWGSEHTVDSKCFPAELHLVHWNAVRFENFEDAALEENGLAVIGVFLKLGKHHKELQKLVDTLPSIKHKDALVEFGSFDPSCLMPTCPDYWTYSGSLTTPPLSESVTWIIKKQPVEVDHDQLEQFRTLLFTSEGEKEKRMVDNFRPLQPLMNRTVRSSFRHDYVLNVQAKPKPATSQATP

Carbonic anhydrase 7 = Carbonic anhydrase 7 (Homo sapiens, UniProt P43166)
Chain of Carbonic anhydrase 7 (P43166 whole entry): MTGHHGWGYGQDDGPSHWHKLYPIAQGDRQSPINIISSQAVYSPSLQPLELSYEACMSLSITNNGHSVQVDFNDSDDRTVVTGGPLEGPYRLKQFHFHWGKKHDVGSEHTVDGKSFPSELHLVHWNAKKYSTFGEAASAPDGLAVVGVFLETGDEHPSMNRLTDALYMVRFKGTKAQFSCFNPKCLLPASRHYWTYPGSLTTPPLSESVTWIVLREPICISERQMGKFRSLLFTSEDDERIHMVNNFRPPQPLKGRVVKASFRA

Chain of Carbonic anhydrase 13 (Q9D6N1 whole entry): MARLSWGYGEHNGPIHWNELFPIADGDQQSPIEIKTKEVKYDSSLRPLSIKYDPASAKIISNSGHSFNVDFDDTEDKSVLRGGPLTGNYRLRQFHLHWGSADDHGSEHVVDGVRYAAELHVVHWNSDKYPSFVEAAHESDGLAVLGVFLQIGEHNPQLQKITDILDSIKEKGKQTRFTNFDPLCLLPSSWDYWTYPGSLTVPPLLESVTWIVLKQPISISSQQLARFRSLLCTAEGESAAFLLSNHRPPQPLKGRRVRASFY
Chain of Carbonic anhydrase 5A, mitochondrial (P35218 whole entry): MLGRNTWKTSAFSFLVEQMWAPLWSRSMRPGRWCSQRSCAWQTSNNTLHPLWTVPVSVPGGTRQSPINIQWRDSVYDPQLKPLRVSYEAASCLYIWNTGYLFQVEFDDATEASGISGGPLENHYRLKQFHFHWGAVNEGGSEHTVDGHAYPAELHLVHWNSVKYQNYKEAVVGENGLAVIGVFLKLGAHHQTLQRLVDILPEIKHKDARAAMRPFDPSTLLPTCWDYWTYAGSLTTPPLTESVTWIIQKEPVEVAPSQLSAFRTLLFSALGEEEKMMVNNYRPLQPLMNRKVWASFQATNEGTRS

Row | Ki (Carbonic anhydrase 13) [nM] | Ki [1] [nM] | Ki (Carbonic anhydrase 12) [nM] | Ki (Carbonic anhydrase 14) [nM] | Ki (Carbonic anhydrase 3) [nM] | Ki (Carbonic anhydrase 6) [nM] | Ki [2] [nM] | Ki (Carbonic anhydrase 7) [nM] | SMILES
1 | 960 |  |  |  |  |  |  |  | NS(=O)(=O)OCCCCCCCCCCOS(N)(=O)=O
2 | 569 | 1200 | 7.9 | 605 | 1130 | 1020 | 1460 |  | NS(=O)(=O)OCCCCCCCCOS(N)(=O)=O
3 | 956 |  |  |  |  |  |  |  | CCCCCCCCCCOS(N)(=O)=O [DECYL SULFAMATE]
4 | 1130 | 1250 | 7 | 390 | 9100 | 795 | 624 | 76.6 | CCCCCCCCOS(N)(=O)=O [OCTYL SULFAMATE]
